Like-named read-outs stand apart in the source and are kept apart here.
Key:
SF-295 = experiment: 2-day cell growth assay, SF-295; assay type: cell-based, human
Method: (§1) The primary endpoints of these assays are the formazan XTT, or alternatively, and in preference, the protein stain sulforhodamine B. All samples are tested in […] 10-fold dilutions with no drug and no-cell controls on each microtiter plate. IC50 values are calculated using SOFTMAX™ software as supplied by the manufacturer of the microplate reader.

UO-31 [1] = experiment: 2-day cell growth assay, UO-31; assay type: cell-based, human
Method: as §1

SN12C = experiment: NCI 60-cell line protocol, SN12C; assay type: cell-based, human; conditions: two days exposure, SRB endpoint
Method: (§2) Samples are tested in the standard National Cancer Institute 60-cell line protocol. First, they are tested against all 60 cell lines in a single final concentration of 10 micromolar. Then, they are separately tested in five 10-fold dilutions. The drug exposure is two days, with an SRB endpoint.

A498 = experiment: NCI 60-cell line protocol, A498; assay type: cell-based, human; conditions: two days exposure, SRB endpoint
Method: as §2

renal cancer cell lines = experiment: NCI 60-cell line protocol, summary over renal lines; assay type: cell-based, human
Method: as §2

786-0 = experiment: NCI 60-cell line protocol, 786-0; assay type: cell-based, human; conditions: two days exposure, SRB endpoint
Method: as §2

TK-10 = experiment: NCI 60-cell line protocol, TK-10; assay type: cell-based, human; conditions: two days exposure, SRB endpoint
Method: as §2

UO-31 [2] = experiment: NCI 60-cell line protocol, UO-31; assay type: cell-based, human; conditions: two days exposure, SRB endpoint
Method: as §2

CAKI-1 = experiment: NCI 60-cell line protocol, CAKI-1; assay type: cell-based, human; conditions: two days exposure, SRB endpoint
Method: as §2

ACHN = experiment: NCI 60-cell line protocol, ACHN; assay type: cell-based, human; conditions: two days exposure, SRB endpoint
Method: as §2

RXF-393 = experiment: NCI 60-cell line protocol, RXF-393; assay type: cell-based, human; conditions: two days exposure, SRB endpoint
Method: as §2

all 60 cell lines = experiment: NCI 60-cell line protocol, all 60 lines; assay type: cell-based, human; conditions: mean over all 60 cell lines, read-out: All 60 mean GI-50
Method: as §2

[3] = system: renal cancer cell line A498; experiment: 2-cell assay; assay type: cell-based
Method: A sample ([…]) of englerin B was stirred in pyridine (0.25 mL) and acetic anhydride (0.25 mL) overnight at room temperature. The solvents were evaporated under vacuum and the product extracted in dichloromethane. The crude product was purified on pTLC (Si gel 60 F254; 2% MeOH/DCM) to give englerin B monoacetate (2.0 mg, 95%).

[4] = Homo sapiens, SF-295, 48 h, insensitive CNS tumor line, read-out: SF-295 IC50
[5] = Homo sapiens, UO-31, 48 h, 2-day cell growth assay, sensitive renal line; read-out: UO-31 IC50
[6] = ratio of IC50 SF-295 to IC50 UO-31
[7] = insensitive CNS tumor line, read-out: SF-295 IC50
[8] = 2-day cell growth assay, sensitive renal line; read-out: UO-31 IC50
[9] = geometric mean over renal cell lines, read-out: Geometric Mean GI50
[10] = mean over renal cell lines, read-out: Mean GI50
[11] = median over renal cell lines, read-out: Median GI50

| Molecule | Selectivity SF-295/UO-31 (UO-31 [1]; [6]) | IC50 (SF-295; [7]) | IC50 (UO-31 [1]; [8]) | GI50 (SN12C) | GI50 (A498) | GI50 (renal cancer cell lines; [9]) | GI50 (renal cancer cell lines; [10]) | GI50 (renal cancer cell lines; [11]) | GI50 (786-0) | GI50 (TK-10) | GI50 (UO-31 [2]) | GI50 (CAKI-1) | GI50 (ACHN) | GI50 (RXF-393) | GI50 (all 60 cell lines) | also measured |
| --- | --- | --- | --- | --- | --- | --- | --- | --- | --- | --- | --- | --- | --- | --- | --- | --- |
| CCOC(c1ccccc1)C(Cl)C(=O)OC1C2C(C)CCC2C2(C)OC1(C(C)C)CC2OC(=O)CO (stereo not drawn) [2′-Chloro,3′-ethoxydihydroenglerin A] | 1.94 | – | – | – | – | – | – | – | – | – | – | – | – | – | – | IC50 (SF-295; [4]): 35000 nM; IC50 (UO-31 [1]; [5]): 18000 nM |
| CC1CCC2C1C(OC(=O)C(Cl)C(O)c1ccccc1)C1(C(C)C)CC(OC(=O)CO)C2(C)O1 (single isomer, unassigned) [2′-Chloro,3′-hydroxydihydroenglerin (epimer 4), 2′-Chloro,3′-hydroxydihydroenglerin A (epimer 4)] | 1.25 | 20000 nM | 16000 nM | – | – | – | – | – | – | – | – | – | – | – | – | – |
| CC(C)[C@@]12C[C@@H](OC(=O)CO)[C@@](C)(O1)[C@@H]1CC[C@@H](C)[C@H]1[C@@H]2OC(=O)/C(Cl)=C/c1ccccc1 [2′-Chloroenglerin A] | 78 | 72000 nM | 920 nM | 560 nM | 28 nM | 210 nM | 3960 nM | 40 nM | 10000 nM | 21000 nM | 35 nM | 35 nM | 41 nM | 19 nM | 5600 nM | – |
| CC1CCC2C1C(OC(=O)C(Cl)C(O)c1ccccc1)C1(C(C)C)CC(OC(=O)CO)C2(C)O1 (single isomer, unassigned) [2′-Chloro,3′-hydroxydihydroenglerin (epimer 3), 2′-Chloro,3′-hydroxydihydroenglerin A (epimer 3)] | 102 | 42000 nM | 410 nM | – | – | – | – | – | – | – | – | – | – | – | – | – |
| CC1CCC2C1C(OC(=O)C(Cl)C(Cl)c1ccccc1)C1(C(C)C)CC(OC(=O)CO)C2(C)O1 (single isomer, unassigned) [2′,3′-Dichlorodihydroenglerin A (epimer 1)] | 75 | – | – | – | 140 nM | – | – | 680 nM | – | – | – | – | 140 nM | 930 nM | – | GI50 (SN12C; Homo sapiens, SN12C, 48 h): 1000 nM; IC50 (SF-295; [4]): 90000 nM; GI50 (renal cancer cell lines; Homo sapiens, 60 cell, geometric mean over renal cell lines, read-out: Geometric Mean GI50): 940 nM; GI50 (renal cancer cell lines; Homo sapiens, 60 cell, mean over renal cell lines, read-out: Mean GI50): 4090 nM; IC50 (UO-31 [1]; [5]): 1200 nM; GI50 (786-0; Homo sapiens, 786-0, 48 h): 12000 nM; GI50 (TK-10; Homo sapiens, TK-10, 48 h): 18000 nM; GI50 (UO-31 [2]; Homo sapiens, UO-31, 48 h): 390 nM; GI50 (CAKI-1; Homo sapiens, CAKI-1, 48 h): 420 nM; GI50 (all 60 cell lines; Homo sapiens, 60 cell): 8300 nM |
| CC1CCC2C1C(OC(=O)C(Cl)C(O)c1ccccc1)C1(C(C)C)CC(OC(=O)CO)C2(C)O1 (single isomer, unassigned) [2′-Chloro,3′-hydroxydihydroenglerin (epimer 2), 2′-Chloro,3′-hydroxydihydroenglerin A (epimer 2)] | 11 | 92000 nM | 8700 nM | 4700 nM | 660 nM | 3130 nM | 7070 nM | 3320 nM | 11000 nM | 27000 nM | 1900 nM | 9300 nM | 1380 nM | 390 nM | 12000 nM | – |
| englerin B monoacetate | – | – | – | – | – | – | – | – | – | – | – | – | – | – | – | selectivity against renal cancer cell line A498 [3]: ~400 fold |
| CC1CCC2C1C(OC(=O)C(Cl)C(Cl)c1ccccc1)C1(C(C)C)CC(OC(=O)CO)C2(C)O1 (single isomer, unassigned) [2′,3′-Dichlorodihydroenglerin A (epimer 2)] | 80 | 60000 nM | 750 nM | 1000 nM | 49 nM | 720 nM | 5550 nM | 320 nM | 12000 nM | 25000 nM | – | 320 nM | 320 nM | 320 nM | 11700 nM | – |
| CC1CCC2C1C(OC(=O)C(Cl)C(O)c1ccccc1)C1(C(C)C)CC(OC(=O)CO)C2(C)O1 (single isomer, unassigned) [2′-Chloro,3′-hydroxydihydroenglerin (epimer 1), 2′-Chloro,3′-hydroxydihydroenglerin A (epimer 1)] | >104 | – | – | 630 nM | 180 nM | 700 nM | 2580 nM | 490 nM | 1700 nM | – | 250 nM | 460 nM | 320 nM | – | – | IC50 (SF-295; read-out: SF-295 IC50, insensitive CNS tumor line): > 100000 nM; IC50 (UO-31 [1]; read-out: UO-31 IC50; 2-day cell growth assay, sensitive renal line): 960 nM; GI50 (TK-10; Homo sapiens, TK-10, 48 h): 17000 nM; GI50 (RXF-393; Homo sapiens, RXF 393, 48 h): 510 nM; GI50 (all 60 cell lines; Homo sapiens, 60 cell): 6900 nM |
